In ChEMBL document CHEMBL1201862, “PubChem BioAssay data set” (2004):
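Exposure lasted 48 hours, with cells grown in 96-well plates and compounds tested at five concentrations. Abbreviation: GI50, concentration required for 50% inhibition of growth.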 Active and inactive are the calls of the source. No stated cut-off is given here; in the data, active = GI50 up to about 1.1 µM and inactive = higher.

Experiments:
Test in all cases: NCI tumour cell line growth inhibition, 48 h
[1] = test system: HOP-92
[2] = test system: HOP-18
[3] = test system: OVCAR-3
[4] = test system: LXFL 529
[5] = test system: SR
[6] = test system: K562
[7] = test system: IGROV-1
[8] = test system: MOLT-4
[9] = test system: M14
[10] = test system: UO-31
[11] = test system: RXF 393
[12] = test system: SN12C
[13] = test system: SNB-75
[14] = test system: OVCAR-8
[15] = test system: CAKI-1
[16] = test system: SK-MEL-5
[17] = test system: A549
[18] = test system: KM-20L2
[19] = test system: U-251
[20] = test system: SNB-19
[21] = test system: SW-620
[22] = test system: OVCAR-5
[23] = test system: ACHN
[24] = test system: SNB-78
[25] = test system: EKVX
[26] = test system: SK-MEL-28
[27] = test system: KM12
[28] = test system: RXF 631
[29] = test system: HL-60
[30] = test system: LOX IMVI
[31] = test system: SF-268
[32] = test system: COLO 205
[33] = test system: TK-10
[34] = test system: DMS-114
[35] = test system: RPMI-8226
[36] = test system: UACC-257
[37] = test system: Malme-3M
[38] = test system: HOP-62
[39] = test system: A498
[40] = test system: HCT-116
[41] = test system: NCI-H23
[42] = test system: HCT-15
[43] = test system: UACC-62
[44] = test system: SK-OV-3
[45] = test system: XF498
[46] = test system: NCI-H226
[47] = test system: OVCAR-4
[48] = test system: CCRF-CEM
[49] = test system: SF-539
[50] = test system: NCI-H460
[51] = test system: SF-295
[52] = test system: HT-29
[53] = test system: DLD-1
[54] = test system: 786-0
[55] = test system: NCI-H522
[56] = test system: HCC 2998
[57] = test system: M19-MEL
[58] = test system: NCI/ADR-RES
[59] = test system: MDA-N
[60] = test system: T47D
[61] = test system: MCF7
[62] = test system: MDA-MB-231
[63] = test system: BT-549
[64] = test system: DMS-273
[65] = test system: PC-3
[66] = test system: Hs-578T
[67] = test system: MDA-MB-435
[68] = test system: DU-145

For `O=C(NCCS(=O)(=O)N1C(=O)C2CCCN2C(=O)[C@@H]1Cc1ccccc1)OCc1ccccc1` (some centres not stated), the GI50 [1] was 27.7 µM (inactive), the GI50 [2] was > 100 µM (inactive) and the GI50 [3] was 33.5 µM (inactive). For the same compound, the GI50 [4] was 34 µM (inactive), the GI50 [5] was 57.1 µM (inactive) and the GI50 [6] was 47.9 µM (inactive). For the same compound, the GI50 [7] was 72.6 µM (inactive), the GI50 [8] was 48 µM (inactive) and the GI50 [9] was 36 µM (inactive). The GI50 [10] was 28.2 µM (inactive), the GI50 [11] was 38 µM (inactive) and the GI50 [12] was 52.8 µM (inactive). For the same compound, the GI50 [13] was 33.3 µM (inactive), the GI50 [14] was 69.8 µM (inactive) and the GI50 [15] was > 100 µM (inactive). The GI50 [16] was 47.4 µM (inactive), the GI50 [17] was 41.1 µM (inactive) and the GI50 [18] was 45.8 µM (inactive). For the same compound, the GI50 [19] was 55.3 µM (inactive), the GI50 [20] was 44.4 µM (inactive) and the GI50 [21] was 90.4 µM (inactive). For the same compound, the GI50 [22] was 70.3 µM (inactive), the GI50 [23] was 35 µM (inactive) and the GI50 [24] was 61.9 µM (inactive). For the same compound, the GI50 [25] was 40.9 µM (inactive), the GI50 [26] was 78.3 µM (inactive) and the GI50 [27] was 44.2 µM (inactive). For the same compound, the GI50 [28] was 45.6 µM (inactive), the GI50 [29] was 24.2 µM (inactive) and the GI50 [30] was 50.6 µM (inactive). The GI50 [31] was 45.6 µM (inactive), the GI50 [32] was 26.2 µM (inactive) and the GI50 [33] was 38.1 µM (inactive). The GI50 [34] was 22.4 µM (inactive), the GI50 [35] was 23.3 µM (inactive) and the GI50 [36] was 48.2 µM (inactive). The GI50 [37] was 74 µM (inactive), the GI50 [38] was 99.8 µM (inactive) and the GI50 [39] was 25.3 µM (inactive). The GI50 [40] was 39.5 µM (inactive), the GI50 [41] was 67.6 µM (inactive) and the GI50 [42] was 51.8 µM. For the same compound, the GI50 [43] was 40 µM (inactive), the GI50 [44] was > 100 µM (inactive) and the GI50 [45] was 0.838 µM (active). For the same compound, the GI50 [46] was 51.8 µM (inactive), the GI50 [47] was 36.7 µM (inactive) and the GI50 [48] was 45.4 µM (inactive). For the same compound, the GI50 [49] was 76.6 µM (inactive), the GI50 [50] was 40.4 µM (inactive) and the GI50 [51] was 50 µM (inactive). The GI50 [52] was 42.8 µM (inactive), the GI50 [53] was > 100 µM (inactive) and the GI50 [54] was 78.9 µM (inactive). The GI50 [55] was 24.7 µM (inactive) and the GI50 [56] was 24 µM (inactive).
With `N/C(S)=N/N=C/c1ccc(O)cn1` the GI50 [1] was 4.68 µM (inactive), the GI50 [2] was 27.1 µM (inactive) and the GI50 [3] was 3.52 µM (inactive). For the same compound, the GI50 [4] was 19.7 µM (inactive), the GI50 [5] was 1.64 µM (inactive) and the GI50 [6] was 4.99 µM (inactive). The GI50 [7] was 21.3 µM (inactive), the GI50 [9] was 5.11 µM (inactive) and the GI50 [10] was 10.6 µM (inactive). The GI50 [12] was 5.35 µM (inactive), the GI50 [13] was 9.06 µM (inactive) and the GI50 [57] was 11.1 µM (inactive). The GI50 [14] was 3.51 µM (inactive), the GI50 [16] was 5.65 µM (inactive) and the GI50 [58] was 4.01 µM (inactive). For the same compound, the GI50 [59] was 8.45 µM (inactive), the GI50 [17] was 47.6 µM (inactive) and the GI50 [19] was 6.18 µM (inactive). The GI50 [60] was 4.72 µM (inactive), the GI50 [20] was 12.9 µM (inactive) and the GI50 [21] was 15.4 µM (inactive). For the same compound, the GI50 [22] was 45 µM (inactive), the GI50 [23] was 1.73 µM (inactive) and the GI50 [61] was 3.18 µM (inactive). For the same compound, the GI50 [25] was 14.5 µM (inactive), the GI50 [26] was 30.1 µM (inactive) and the GI50 [27] was 11.1 µM (inactive). For the same compound, the GI50 [28] was 31.2 µM (inactive), the GI50 [29] was 4.12 µM (inactive) and the GI50 [30] was 5.13 µM (inactive). The GI50 [31] was 4.3 µM (inactive), the GI50 [62] was 18.5 µM (inactive) and the GI50 [33] was 105 µM (inactive). For the same compound, the GI50 [35] was 10.7 µM (inactive), the GI50 [36] was 22.4 µM (inactive) and the GI50 [37] was 7.55 µM (inactive). For the same compound, the GI50 [63] was 44.5 µM (inactive), the GI50 [38] was 4.59 µM (inactive) and the GI50 [64] was 3.75 µM (inactive). For the same compound, the GI50 [39] was 32 µM (inactive), the GI50 [40] was 10.9 µM (inactive) and the GI50 [41] was 6.11 µM (inactive). For the same compound, the GI50 [42] was 9.08 µM, the GI50 [65] was 7.1 µM (inactive) and the GI50 [45] was 12.4 µM (inactive). For the same compound, the GI50 [46] was 24.2 µM (inactive), the GI50 [48] was 1.78 µM (inactive) and the GI50 [66] was 316 µM (inactive). For the same compound, the GI50 [49] was 2.26 µM (inactive), the GI50 [67] was 10.5 µM (inactive) and the GI50 [50] was 18.5 µM (inactive). For the same compound, the GI50 [51] was 20.4 µM (inactive), the GI50 [52] was 22.3 µM (inactive) and the GI50 [53] was 21.4 µM (inactive). For the same compound, the GI50 [68] was 2.96 µM (inactive) and the GI50 [56] was 13.6 µM (inactive).
